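The compound was tested at five concentrations on cells cultured in 96-well plates, with a 48-hour exposure period. Here, GI50 denotes the concentration required for 50% inhibition of growth.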 Activity calls are given as the source filed them. No stated cut-off is given here; in the data, active = GI50 up to about 1.1 µM and inactive = higher.
Legend:
Assay in all cases: growth of human tumour cells (NCI), 48 h
[1] = system: ACHN
[2] = system: SF-295
[3] = system: SR
[4] = system: PC-3
[5] = system: M14
[6] = system: HCT-15
[7] = system: SNB-19
[8] = system: UACC-62
[9] = system: MDA-MB-435
[10] = system: T47D
[11] = system: A549
[12] = system: SNB-75
[13] = system: SK-MEL-28
[14] = system: SW-620
[15] = system: MOLT-4
[16] = system: HCC 2998
[17] = system: BT-549
[18] = system: 786-0
[19] = system: U-251
[20] = system: SN12C
[21] = system: A498
[22] = system: RPMI-8226
[23] = system: UO-31
[24] = system: SK-MEL-2
[25] = system: HOP-92
[26] = system: MCF7
[27] = system: MDA-N
[28] = system: TK-10
[29] = system: CAKI-1
[30] = system: OVCAR-4
[31] = system: HCT-116
[32] = system: OVCAR-8
[33] = system: SF-539
[34] = system: Malme-3M
[35] = system: DU-145
[36] = system: OVCAR-3
[37] = system: MDA-MB-231
[38] = system: RXF 393
[39] = system: NCI/ADR-RES
[40] = system: NCI-H460
[41] = system: HOP-62
[42] = system: IGROV-1
[43] = system: KM12
[44] = system: SK-OV-3
[45] = system: LOX IMVI
[46] = system: COLO 205
[47] = system: NCI-H522
[48] = system: UACC-257
[49] = system: Hs-578T
[50] = system: SF-268
[51] = system: CCRF-CEM
[52] = system: OVCAR-5
[53] = system: HT-29
[54] = system: HL-60
[55] = system: NCI-H23
[56] = system: SK-MEL-5
[57] = system: EKVX
[58] = system: NCI-H226
[59] = system: K562

`COC(=O)[C@@H]1C[C@@]23CCCN4CC[C@@]5(c6cccc(OC)c6N(C=O)[C@]15CC2)[C@@H]43` was tested, and the GI50 [1] was > 100 µM (inactive), the GI50 [2] was > 100 µM (inactive) and the GI50 [3] was > 100 µM (inactive). The GI50 [4] was > 100 µM (inactive), the GI50 [5] was > 100 µM (inactive) and the GI50 [6] was greater than 100 µM. For the same molecule, the GI50 [7] was > 100 µM (inactive), the GI50 [8] was > 100 µM (inactive) and the GI50 [9] was > 100 µM (inactive). For the same molecule, the GI50 [10] was > 100 µM (inactive), the GI50 [11] was > 100 µM (inactive) and the GI50 [12] was 78.7 µM (inactive). For the same molecule, the GI50 [13] was > 100 µM (inactive), the GI50 [14] was > 100 µM (inactive) and the GI50 [15] was > 100 µM (inactive). The GI50 [16] was > 100 µM (inactive), the GI50 [17] was > 100 µM (inactive) and the GI50 [18] was > 100 µM (inactive). For the same molecule, the GI50 [19] was > 100 µM (inactive), the GI50 [20] was > 100 µM (inactive) and the GI50 [21] was > 100 µM (inactive). For the same molecule, the GI50 [22] was > 100 µM (inactive), the GI50 [23] was > 100 µM (inactive) and the GI50 [24] was > 100 µM (inactive). For the same molecule, the GI50 [25] was > 100 µM (inactive), the GI50 [26] was > 100 µM (inactive) and the GI50 [27] was > 100 µM (inactive). For the same molecule, the GI50 [28] was > 100 µM (inactive), the GI50 [29] was > 100 µM (inactive) and the GI50 [30] was > 100 µM (inactive). For the same molecule, the GI50 [31] was > 100 µM (inactive), the GI50 [32] was > 100 µM (inactive) and the GI50 [33] was > 100 µM (inactive). For the same molecule, the GI50 [34] was > 100 µM (inactive), the GI50 [35] was > 100 µM (inactive) and the GI50 [36] was > 100 µM (inactive). For the same molecule, the GI50 [37] was > 100 µM (inactive), the GI50 [38] was > 100 µM (inactive) and the GI50 [39] was > 100 µM (inactive). For the same molecule, the GI50 [40] was > 100 µM (inactive), the GI50 [41] was > 100 µM (inactive) and the GI50 [42] was > 100 µM (inactive). The GI50 [43] was > 100 µM (inactive), the GI50 [44] was > 100 µM (inactive) and the GI50 [45] was > 100 µM (inactive). For the same molecule, the GI50 [46] was > 100 µM (inactive), the GI50 [47] was > 100 µM (inactive) and the GI50 [48] was > 100 µM (inactive). For the same molecule, the GI50 [49] was > 100 µM (inactive), the GI50 [50] was > 100 µM (inactive) and the GI50 [51] was > 100 µM (inactive). The GI50 [52] was > 100 µM (inactive), the GI50 [53] was > 100 µM (inactive) and the GI50 [54] was > 100 µM (inactive). The GI50 [55] was > 100 µM (inactive), the GI50 [56] was > 100 µM (inactive) and the GI50 [57] was > 100 µM (inactive). The GI50 [58] was > 100 µM (inactive).

In the case of `CC(=O)c1csc2c1C(=O)c1ccccc1C2=O`, the GI50 [1] is reported as 2.02 µM (inactive), the GI50 [2] is reported as 1.55 µM (inactive) and the GI50 [3] is reported as 3.66 µM (inactive). The GI50 [4] was 7.57 µM (inactive), the GI50 [5] was 1.07 µM (active) and the GI50 [6] was 4.55 µM. For the same molecule, the GI50 [7] was 2.12 µM (inactive), the GI50 [8] was 1.93 µM (inactive) and the GI50 [9] was 0.9 µM (active). The GI50 [10] was 21.7 µM (inactive), the GI50 [11] was 1.92 µM (inactive) and the GI50 [12] was 1.73 µM (inactive). For the same molecule, the GI50 [13] was 1.92 µM (inactive), the GI50 [14] was 2.2 µM (inactive) and the GI50 [16] was 1.75 µM (inactive). For the same molecule, the GI50 [17] was 1.62 µM (inactive), the GI50 [18] was 2.07 µM (inactive) and the GI50 [19] was 2.88 µM (inactive). The GI50 [20] was 2.25 µM (inactive), the GI50 [21] was 46.7 µM (inactive) and the GI50 [22] was 5.65 µM (inactive). The GI50 [23] was 2.64 µM (inactive), the GI50 [24] was 3.06 µM (inactive) and the GI50 [25] was 30.5 µM (inactive). The GI50 [26] was 2.1 µM (inactive), the GI50 [27] was 1.22 µM (inactive) and the GI50 [28] was 1.79 µM (inactive). For the same molecule, the GI50 [29] was 3.99 µM (inactive), the GI50 [30] was 6.04 µM (inactive) and the GI50 [31] was 2.24 µM (inactive). The GI50 [32] was 2.51 µM (inactive), the GI50 [33] was 2.08 µM (inactive) and the GI50 [34] was 0.483 µM (active). For the same molecule, the GI50 [35] was 1.67 µM (inactive), the GI50 [36] was 3.66 µM (inactive) and the GI50 [37] was 6.76 µM (inactive). For the same molecule, the GI50 [38] was 10.2 µM (inactive), the GI50 [39] was 2.88 µM (inactive) and the GI50 [40] was 1.48 µM (inactive). The GI50 [41] was 1.97 µM (inactive), the GI50 [42] was 2.4 µM (inactive) and the GI50 [43] was 1.53 µM (inactive). The GI50 [44] was 38.1 µM (inactive), the GI50 [45] was 2.36 µM (inactive) and the GI50 [46] was 1.74 µM (inactive). The GI50 [47] was 1.78 µM (inactive), the GI50 [59] was 3.92 µM (inactive) and the GI50 [48] was 1.46 µM (inactive). The GI50 [49] was 2.43 µM (inactive), the GI50 [50] was 2.78 µM (inactive) and the GI50 [51] was 1.56 µM (inactive). For the same molecule, the GI50 [52] was 2.35 µM (inactive), the GI50 [53] was 2.02 µM (inactive) and the GI50 [54] was 0.29 µM (active). The GI50 [55] was 1.26 µM (inactive), the GI50 [56] was 0.18 µM (active) and the GI50 [57] was 5.78 µM (inactive). The GI50 [58] was 1.58 µM (inactive).
